Each structure is given as a SMILES string.

For `COc1cc2c(cc1OCCCCCC(=O)N1C[C@@H](CCl)c3c1cc(OP(=O)(O)O)c1ccccc31)N(C(=O)OCc1ccc(NC(=O)[C@H](CCCCN)NC(=O)C3(C(=O)NCCCCCN4C(=O)C=CC4=O)CCC3)cc1)C(O)[C@@H]1CCCN1C2=O` (stereo partly shown), the melting point (commonly the temperature, or range, at which the solid turns liquid) was 98 °C (dec.).

The values above are taken from patent US10632210B2, “Peptidomimetic compounds and antibody-drug conjugates thereof” (Genentech, Inc., priority 2013, dated 2020).
